Five molecules from patent publication US20220002279A1, “NOVEL IMIDAZOLE DERIVATIVE” (priority 2018, published 2022) can be followed below.

pIC50: −log10 of the molar value. Converted amounts (≈) assume the structure as drawn. Where two headings read alike, the source gives them in different places.

Test [1] concerns Klebsiella pneumoniae strain ATCC13883. The test is described as follows: Antimicrobial activity, MIC by broth microdilution. It is filed as cell-based. Particulars: ATCC13883, cation-adjusted Mueller-Hinton broth, about 5×10^5 CFU/mL, 35° C., about 18 hours, read-out: MIC Klebsiella pneumoniae ATCC13883. The essentials:
(§1)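 MIC read by eye as the lowest drug level lacking visible growth after roughly 18 h at 35° C. Cells from heart infusion agar, set to McFarland 0.5 and diluted, were inoculated at about 5×10^5 CFU/mL into cation-adjusted Mueller-Hinton broth with compound, per adapted CLSI microdilution.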
Background: Broth dilution looks for growth in wells or tubes with falling amounts of substance.

Test [2] concerns Pseudomonas aeruginosa strain ATCC27853. As to the kind of experiment: Antimicrobial activity, MIC by broth microdilution. The test is classed as cell-based. The following applies: ATCC27853, 18 h, cation-adjusted Mueller-Hinton broth, about 5×10^5 CFU/mL, 35° C., about 18 hours, read-out: MIC Pseudomonas aeruginosa ATCC27853. The essentials:
as §1

The target of test [3] is T1, Escherichia coli LpxC enzyme (Escherichia coli, UniProt P0A725).
T1 construct: made in house; host or cells: Escherichia coli
T1 sequence (P0A725 1-305): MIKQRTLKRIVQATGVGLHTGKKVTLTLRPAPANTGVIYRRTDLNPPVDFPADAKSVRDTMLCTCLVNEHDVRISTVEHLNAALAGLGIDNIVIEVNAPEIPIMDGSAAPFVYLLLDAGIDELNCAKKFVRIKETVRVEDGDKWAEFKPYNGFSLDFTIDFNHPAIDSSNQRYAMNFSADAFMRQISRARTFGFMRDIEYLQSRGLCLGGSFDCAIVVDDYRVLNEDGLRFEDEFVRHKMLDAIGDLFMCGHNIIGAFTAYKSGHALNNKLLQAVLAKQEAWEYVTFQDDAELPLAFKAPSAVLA
The test is described as follows: Inhibitory activity on Escherichia coli LpxC enzyme (LCMS method). It is filed as biochemical. From the text: Test Example 3 Evaluation of the Inhibitory Activity on Escherichia coli LpxC Enzyme (LCMS Method)
To assay the activity of Escherichia coli LpxC enzyme, LpxC was reacted with its substrate, UDP-3-O-(R-3-hydroxymyristoyl)-N-acetylglucosamine, and the amount of the reaction product was quantified by liquid chromatography tandem mass spectrometry.
Specifically, to 3.1 nmol/L Escherichia coli LpxC enzyme (as acquired by preparing chromosomal DNA from Escherichia coli, obtaining the Escherichia coli LpxC genes by PCR (polymerase chain reaction) using LpxC specific primer, and incorporating the genes into a vector, followed by expression using Escherichia coli), 20 μmol/L UDP-3-O-(R-3-hydroxymyristoyl)-N-acetylglucosamine (Alberta) was added, and the mixture was incubated at room temperature for 120 minutes. This reaction was performed in a 40 mmol/L-2-morpholinoethanesulfonic acid buffer solution (pH 6.5) containing 0.02% Brij 35, 25 nmol/L-zinc chloride, and 80 μmol/L-dithiothreitol. The reaction was terminated by the addition of acetonitrile containing 25 μmol/L-UDP-N-acetylglucosamine as an internal standard to the reaction mixture. Centrifugation was performed and the amount of the substrate and the reaction product in the supernatant was detected by liquid chromatography tandem mass spectrometry. An inhibition curve was obtained by performing the aforementioned reaction in the presence of various concentrations of test compounds. From this inhibition curve, the concentration of test compound at which the amount of the reaction product was suppressed by 50% (IC50 value) was determined, which was used as an index for the inhibitory activity on Escherichia coli LpxC enzyme.

In test [4] the target is T2, Pseudomonas aeruginosa LpxC enzyme (Pseudomonas aeruginosa, UniProt P47205).
T2 construct: made in house; host or cells: Escherichia coli
T2 sequence (P47205 1-303): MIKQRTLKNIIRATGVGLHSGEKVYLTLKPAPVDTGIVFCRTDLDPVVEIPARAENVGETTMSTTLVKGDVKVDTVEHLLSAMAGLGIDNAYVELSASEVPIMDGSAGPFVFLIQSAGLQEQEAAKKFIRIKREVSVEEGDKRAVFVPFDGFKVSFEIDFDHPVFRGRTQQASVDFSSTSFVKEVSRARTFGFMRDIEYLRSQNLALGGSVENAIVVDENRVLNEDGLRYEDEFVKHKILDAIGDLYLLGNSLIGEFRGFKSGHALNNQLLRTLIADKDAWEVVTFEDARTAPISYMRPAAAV
The test is described as follows: Inhibitory activity on Pseudomonas aeruginosa LpxC enzyme (fluorescamine method). The test is classed as biochemical. Particulars: fluorescamine detection; 3.6 nmol/L enzyme, 20 μmol/L substrate, pH 8.0, 60 min. From the text:
Test Example 1 Evaluation of the Inhibitory Activity on Pseudomonas aeruginosa LpxC Enzyme (Fluoresamine Method)
To assay the activity of Pseudomonas aeruginosa LpxC enzyme, LpxC was reacted with its substrate, UDP-3-O-(R-3-hydroxydecanoyl)-N-acetylglucosamine, and the amount of the reaction product was quantified by the amino groups present in the product.
Specifically, to 3.6 nmol/L Pseudomonas aeruginosa LpxC enzyme (as acquired by preparing chromosomal DNA from Pseudomonas aeruginosa, obtaining the Pseudomonas aeruginosa LpxC genes by PCR (polymerase chain reaction) using LpxC specific primer, and incorporating the genes into a vector, followed by expression using Escherichia coli), 20 μmol/L UDP-3-O-(R-3-hydroxydecanoyl)-N-acetylglucosamine (Carbosynth) was added, and the mixture was incubated at room temperature for 60 minutes. This reaction was performed in a 40 mmol/L-HEPES buffer solution (pH 8.0) containing 0.02% Brij 35 and 25 nmol/L-zinc chloride. The reaction was terminated by the addition of 1.0 mg/mL-fluorescamine dissolved in a solvent obtained by mixing an equal amount of acetonitrile and dimethylformamide with the reaction mixture, and then, a 0.2 mol/L-sodium phosphate buffer solution (pH 8.0) was added thereto, and the amount of the reaction product was detected at an excitation wavelength/fluorescence wavelength=390 nm/495 nm. An inhibition curve was obtained by performing the aforementioned reaction in the presence of various concentrations of test compounds. From this inhibition curve, the concentration of test compound at which the amount of the reaction product was suppressed by 50% (IC50 value) was determined, which was used as an index for the inhibitory activity on Pseudomonas aeruginosa LpxC enzyme.

Test [5] has as its system Escherichia coli strain ATCC25922. The test is described as follows: Antimicrobial activity, MIC by broth microdilution. It is filed as cell-based. Particulars: ATCC25922, 18 h, cation-adjusted Mueller-Hinton broth, about 5×10^5 CFU/mL, 35° C., about 18 hours, read-out: MIC Escherichia coli ATCC25922. The method, boiled down:
as §1

Setting [6] is: LC-MS/MS detection, 3.1 nmol/L enzyme, 20 μmol/L substrate, pH 6.5, 120 min, read-out: IC50 (inhibitory activity on Escherichia coli LpxC enzyme, LCMS method).

As to `C[C@H](O)c1nccn1[C@H](CN)c1cc(-c2ccc(C#CCCCO)cc2)on1` [Compound 18, 5-(4-{3-[(1R)-2-Amino-1-{2-[(1S)-1-hydroxyethyl]-1H-imidazol-1-yl}ethyl]-1,2-oxazol-5-yl}phenyl)pent-4-yn-1-ol], the MIC (usually the smallest concentration in the dilution series that meets the test's criterion for growth inhibition) in test [1] turned out to be 8 µg/mL (≈ 21 µM); in test [2], 16 µg/mL (≈ 42.1 µM). Besides, the figures for the pIC50 in test [3] and in test [4] were 7.16 and 8.22, respectively.
In the case of `C[C@H](O)c1nccn1Cc1cc(-c2ccc(C#CC3CC3CN)cc2)on1` (stereo in doubt) [Compound 8, (1S)-1-(1-{[5-(4-{[trans-2-(aminomethyl)cyclopropyl]ethynyl}phenyl)-1,2-oxazol-3-yl]methyl}-1H-imidazol-2-yl)ethan-1-ol], the MIC in test [1] worked out at 64 µg/mL (≈ 177 µM); in test [2] it was 16 µg/mL (≈ 44.1 µM). In addition, the negative logarithm of the IC50 (pIC50) (in general, the IC50 on a negative log10 scale, so that one unit is a factor of ten) in test [3] (setting [6]) is 7.17; in test [4], 7.52.
For the molecule `C[C@H](O)c1nccn1Cc1cc(-c2ccc(C#CC34CC(N)(C3)C4)cc2)on1` [Compound 17, (1S)-1-{1-[(5-(4-[(3-aminobicyclo[1.1.1]pentan-1-yl)ethynyl]phenyl}-1,2-oxazol-3-yl)methyl]-1H-imidazol-2-yl}ethan-1-ol], the MIC in test [1] was determined as 0.5 µg/mL (≈ 1.34 µM); in test [2], 16 µg/mL (≈ 42.7 µM); in test [5], 0.5 µg/mL (≈ 1.34 µM). Moreover, the pIC50 in test [3] (setting [6]) was 7.31; in test [4] it was 7.86.
Take `C[C@H](O)c1nccn1[C@H](CN)c1cc(-c2ccc(C#C[C@H]3C[C@H](O)C3)cc2)on1` [Compound 70, trans-3-[(4-{3-[(1R)-2-Amino-1-{2-[(1S)-1-hydroxyethyl]-1H-imidazol-1-yl}ethyl]-1,2-oxazol-5-yl}phenyl)ethynyl]cyclobutan-1-ol]: the results for the MIC in test [1], in test [2] and in test [5] were 1 µg/mL (≈ 2.55 µM), 4 µg/mL (≈ 10.2 µM) and 0.25 µg/mL (≈ 0.637 µM), respectively. Besides, in test [3] (setting [6]), the pIC50 is over 7.43.
`C[C@H](O)c1nccn1Cc1cc(-c2ccc(C#CC3(N)COC3)cc2)on1` [Compound 40, (1S)-1-{1-[(5-(4-[(3-aminooxetan-3-yl)ethynyl]phenyl}-1,2-oxazol-3-yl)methyl]-1H-imidazol-2-yl}ethan-1-ol]: the values for the MIC in test [1], in test [2] and in test [5] were 32 µg/mL (≈ 87.8 µM), over 128 µg/mL and 16 µg/mL (≈ 43.9 µM), respectively. In test [3] (setting [6]), the pIC50 was 6.85.
